Each structure is given as a SMILES string.

The values below come from patent US20250051243A1, “Nano Bio-Carrier with Plant Additives Combined with Chemical Fertilizers” (Sabic Agri-Nutrients Company, priority 2021, published 2025).

The experiment deals with Maize. The experiment in a line: Maize trials: soil and foliar application of nano chitosan fertilizer product on maize crops (greenhouse pots). In kind it is in vivo. On the procedure:
Maize trials. Assays were also performed to evaluate soil and foliar application of nano chitosan fertilizer product on maize crops. These trials were also performed to investigate the effect of different concentrations of bulk and nano chitosan on the growth and productivity of maize. The maize trials included a further formulation for nano-chitosan urea, namely a urea-chitosan nanocomposite. The urea-chitosan nanocomposite was prepared by evaporating or freeze-drying the nano-chitosan fertilizer aqueous solution. The current urea-chitosan nanocomposite was prepared by evaporating an aqueous solution of nanochitosan urea at 50° C. for two days in an oven. Nanocomposite morphology of the urea-chitosan nanocomposite was confirmed based on SEM and compositional analysis shown in FIGS. 6A-6E and TEM shown in FIGS. 7A-7E. For SEM and compositional analysis on solid form, samples were studied in Zeiss EVO 15 after coating samples with gold to avoid charging. The powder was mounted on an aluminum stub. Based on the EDS analysis, it appeared that chitosan and urea was present in this powder. For the TEM analysis, a small amount of the sample was taken in a small vial, diluted with DM water and sonicated for 15 mins. One to two drops of this solution was taken on a formvar grid, the excess liquid was blotted on a filter paper, and TEM analysis was carried out Tecnai F20 at representative magnifications shown in FIGS. A thin grey film in the background with very small sized darker particles were apparent. An occasional larger sized film was also seen. Because urea dissolves in water, the morphology seen in the images of this sample was primarily urea-chitosan nanocomposite (nanoparticles). The process of drying in an oven over two days ensured steady removal of water without disturbing the nano-morphology of the urea-chitosan nanocomposite. Table 6 presents the trial details for the soil and foliar application of nano chitosan fertilizer product on maize crops. [table] Control samples were T1 (urea granules, at different time); T2 (urea and zinc, commercially available); and T13 (urea powder). As shown, Table 7A also presents the varying concentrations for the samples. […] Each rectangle represented a section or table in the greenhouse and the respective Trial sample(s) shown thereon. […] FIG. 13 is a graphical representation of the number of leaves apparent at 30 days after sowing (DAS) and at 60 DAS for samples T1 through T23. […] The amount of chlorophyll present in the leaf for samples T1 through T23 was measured using a soil plant analysis development (SPAD) chlorophyll meter and is shown in FIG. 14. […]

Consider `NC(N)=O` [T13, urea], for which, for the setting “leaf chlorophyll, SPAD chlorophyll meter, 30 DAS”, the “SPAD READING 30 DAS” value was 34.50. Under “leaf chlorophyll, SPAD chlorophyll meter, 60 DAS”, the “SPAD READING 60 DAS” value is given as 33.33. For the setting “maize”, the “Cob Yield” value came to 7.33 g and the “Grain Yield” value amounted to 0.00 g. For the same molecule, the “Plant Height 30 DAS” value (maize, 30 DAS) worked out at 124.33 centimeters. The “Plant height 60 DAS” value (maize, 60 DAS) is 159.00 centimeters. The “No. of leaves 30 DAS” value (maize, 30 days after sowing, soil or foliar application as per treatment) turned out to be 8.67. The “No. of leaves 60 DAS” value (maize, 60 days after sowing, soil or foliar application as per treatment) came out at 12.67. Besides, the “corn cob development (grains within the cob)” value (observation by greenhouse section A, B, C) is reported as “failed to show grains”.
